Laboratory results: US8022206B2 (OSI Pharmaceuticals, LLC, priority 2008, dated 2011)

How the values were obtained:
[1] = target: RON (human) (Homo sapiens, UniProt Q04912); assay: RON (human) AlphaScreen kinase assay, Km of ATP; assay type: biochemical; details: AlphaScreen, Km of ATP; read-out: RON biochemical IC50
Procedure, shortened: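 Reaction was started with enzyme and run 30 min at RT. PT66 donor/acceptor beads in an EDTA-containing Tris pH 7.5 buffer were then added, and the signal was read after 1 h.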

[2] = target: MET (human) (Homo sapiens, UniProt P08581); assay: MET (human) AlphaScreen kinase assay, Km of ATP; assay type: biochemical; details: AlphaScreen, Km of ATP; read-out: Met biochemical IC50
Procedure, shortened: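 Human MET at lot-optimised concentration in 50 mM Tris pH 7.4 buffer with 1 mM DTT, compound at 1% DMSO final; enzyme starts the reaction, 60 min at RT.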

Sequence of MET (human) (P08581 25-1390): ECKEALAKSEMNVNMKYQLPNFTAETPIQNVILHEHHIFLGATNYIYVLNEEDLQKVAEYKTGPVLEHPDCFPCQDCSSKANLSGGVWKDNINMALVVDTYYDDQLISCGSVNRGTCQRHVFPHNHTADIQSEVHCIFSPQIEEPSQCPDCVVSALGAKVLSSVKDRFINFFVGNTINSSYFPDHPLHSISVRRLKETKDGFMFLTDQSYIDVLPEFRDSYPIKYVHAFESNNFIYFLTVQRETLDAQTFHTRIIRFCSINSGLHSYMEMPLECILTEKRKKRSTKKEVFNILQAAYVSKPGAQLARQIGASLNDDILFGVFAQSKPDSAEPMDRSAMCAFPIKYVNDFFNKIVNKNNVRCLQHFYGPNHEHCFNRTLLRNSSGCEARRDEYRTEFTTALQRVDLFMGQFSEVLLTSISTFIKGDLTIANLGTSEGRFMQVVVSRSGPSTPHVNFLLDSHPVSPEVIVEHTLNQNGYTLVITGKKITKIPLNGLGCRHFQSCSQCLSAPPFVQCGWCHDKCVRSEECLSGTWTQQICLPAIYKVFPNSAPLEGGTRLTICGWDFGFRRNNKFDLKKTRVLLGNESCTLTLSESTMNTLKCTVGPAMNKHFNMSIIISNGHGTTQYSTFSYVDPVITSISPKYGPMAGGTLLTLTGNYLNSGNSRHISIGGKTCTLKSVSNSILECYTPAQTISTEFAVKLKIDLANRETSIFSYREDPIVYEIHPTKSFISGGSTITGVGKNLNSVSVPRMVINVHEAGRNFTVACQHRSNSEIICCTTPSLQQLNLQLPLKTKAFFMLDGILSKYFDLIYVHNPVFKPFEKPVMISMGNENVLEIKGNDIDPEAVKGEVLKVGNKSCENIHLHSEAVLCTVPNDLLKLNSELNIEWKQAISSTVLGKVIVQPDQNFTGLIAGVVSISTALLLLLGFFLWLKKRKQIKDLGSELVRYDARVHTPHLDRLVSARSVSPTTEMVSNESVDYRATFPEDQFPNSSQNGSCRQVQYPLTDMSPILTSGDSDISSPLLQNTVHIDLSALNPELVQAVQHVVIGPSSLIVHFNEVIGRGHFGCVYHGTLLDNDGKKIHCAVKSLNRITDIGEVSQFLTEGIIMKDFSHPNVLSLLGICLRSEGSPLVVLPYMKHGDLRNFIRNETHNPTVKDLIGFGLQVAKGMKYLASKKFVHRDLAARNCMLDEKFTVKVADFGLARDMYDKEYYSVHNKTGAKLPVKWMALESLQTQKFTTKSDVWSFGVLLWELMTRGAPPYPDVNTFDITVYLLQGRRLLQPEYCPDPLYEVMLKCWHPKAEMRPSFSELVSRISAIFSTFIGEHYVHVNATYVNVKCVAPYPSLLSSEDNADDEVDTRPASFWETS
Sequence of RON (human) (Q04912 25-1400): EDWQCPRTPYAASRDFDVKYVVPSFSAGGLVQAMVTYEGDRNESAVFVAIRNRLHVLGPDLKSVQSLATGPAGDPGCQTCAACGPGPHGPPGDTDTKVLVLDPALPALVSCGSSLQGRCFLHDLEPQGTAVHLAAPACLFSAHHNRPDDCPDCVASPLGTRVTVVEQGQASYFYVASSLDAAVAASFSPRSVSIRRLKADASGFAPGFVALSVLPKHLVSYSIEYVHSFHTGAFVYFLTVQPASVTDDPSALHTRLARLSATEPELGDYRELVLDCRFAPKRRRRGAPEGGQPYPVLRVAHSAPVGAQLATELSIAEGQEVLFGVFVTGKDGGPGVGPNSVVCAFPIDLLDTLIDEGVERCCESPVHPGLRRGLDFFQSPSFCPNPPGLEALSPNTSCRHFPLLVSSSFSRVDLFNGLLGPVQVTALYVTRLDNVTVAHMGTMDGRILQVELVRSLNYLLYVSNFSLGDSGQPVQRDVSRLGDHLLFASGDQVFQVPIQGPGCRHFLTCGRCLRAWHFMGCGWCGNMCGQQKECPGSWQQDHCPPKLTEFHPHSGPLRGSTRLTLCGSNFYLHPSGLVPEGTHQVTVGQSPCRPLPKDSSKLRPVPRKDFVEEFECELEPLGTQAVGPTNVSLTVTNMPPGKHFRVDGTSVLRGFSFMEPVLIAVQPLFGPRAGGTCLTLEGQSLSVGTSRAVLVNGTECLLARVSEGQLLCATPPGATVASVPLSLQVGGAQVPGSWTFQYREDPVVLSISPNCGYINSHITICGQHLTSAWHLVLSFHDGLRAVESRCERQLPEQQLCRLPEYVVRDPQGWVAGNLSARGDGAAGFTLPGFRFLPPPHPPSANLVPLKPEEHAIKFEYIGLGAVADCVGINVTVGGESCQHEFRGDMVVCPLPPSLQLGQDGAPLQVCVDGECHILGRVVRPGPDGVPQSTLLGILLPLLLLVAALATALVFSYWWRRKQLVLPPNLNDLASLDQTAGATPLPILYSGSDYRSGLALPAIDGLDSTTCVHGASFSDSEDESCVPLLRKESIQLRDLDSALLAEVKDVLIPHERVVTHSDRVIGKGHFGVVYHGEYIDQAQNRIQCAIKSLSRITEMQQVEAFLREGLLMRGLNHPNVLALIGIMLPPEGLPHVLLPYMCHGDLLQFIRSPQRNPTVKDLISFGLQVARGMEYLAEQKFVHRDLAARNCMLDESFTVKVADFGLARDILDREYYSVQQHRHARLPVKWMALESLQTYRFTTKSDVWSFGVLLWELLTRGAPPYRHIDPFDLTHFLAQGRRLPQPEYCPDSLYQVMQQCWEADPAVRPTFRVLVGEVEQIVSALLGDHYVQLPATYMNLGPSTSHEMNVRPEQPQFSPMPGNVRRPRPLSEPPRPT

| Compound | IC50 [1] [nM] | IC50 [2] [nM] |
| --- | --- | --- |
| Cn1c(Cc2ccccc2)ncc(-c2ccc(COc3c(N)ncc4c(Br)coc34)cc2)c1=O [Example 465, 5-[4-(6-Amino-3-bromofuro[3,2-c]pyridin-7-yloxymethyl)phenyl]-2-benzyl-3-methyl-3H-pyrimidin-4-one] | 5000 to 20000 | 500 to 5000 |
| CC(Oc1c(N)ncc2c(-c3cnn(C4CCNCC4)c3)coc12)c1cccc(Cl)c1 (stereo not shown) [Example 385, 7-[1-(3-Chlorophenyl)ethoxy]-3-(1-piperidin-4-yl-1H-pyrazol-4-yl)furo[3,2-c]pyridin-6-ylamine] | 500 to 5000 | < 500 |
| C[C@@H](Oc1c(N)ncc2c(-c3cnn(C4CCNCC4)c3)coc12)c1cccc(F)c1 [Example 337, 7-[(R)-1-(3-fluorophenyl)ethoxy]-3-(1-piperidin-4-yl-1H-pyrazol-4-yl)-furo[3,2-c]pyridin-6-ylamine] | 500 to 5000 | < 500 |
| C[C@@H](Oc1c(N)ncc2c(C3=CCN(C(=O)NC(C)(C)C)CC3)coc12)c1c(Cl)ccc(F)c1Cl [Example 148, 4-{6-Amino-7-[(1R)-1-(2,6-dichloro-3-fluorophenyl)ethoxy]furo[3,2-c]pyridin-3-yl}-N-tert-butyl-3,6-dihydropyridine-1(2H)-carboxamide] | 500 to 5000 | < 500 |
| Nc1ncc2c(-c3cnn(C4CCNCC4)c3)coc2c1O[C@H]1CCC[C@H]1c1cccc(F)c1 [Example 408] | 500 to 5000 | 500 to 5000 |
| C[C@@H](Oc1c(N)ncc2c(-c3ccc(CO)cc3)coc12)c1c(Cl)ccc(F)c1Cl [Example 64, (4-{6-Amino-7-[(R)-1-(2,6-dichloro-3-fluorophenyl)ethoxy]-furo[3,2-c]pyridin-3-yl}-phenyl)methanol] | 500 to 5000 | 500 to 5000 |
| CC(=O)Nc1cccc(-c2coc3c(O[C@H](C)c4c(Cl)ccc(F)c4Cl)c(N)ncc23)c1 [Example 78, N-(3-{6-Amino-7-[(R)-1-(2,6-dichloro-3-fluorophenyl)ethoxy]-furo[3,2-c]pyridin-3-yl}phenyl)acetamide] | 500 to 5000 | 500 to 5000 |
| CC(Oc1c(N)ncc2c(-c3cnn(C4CCNCC4)c3)coc12)c1nc2ccccc2s1 (stereo not shown) [Example 404, 7-(1-Benzothiazol-2-ylethoxy)-3-(1-piperidin-4-yl-1H-pyrazol-4-yl)furo[3,2-c]pyridin-6-ylamine] | 500 to 5000 | 500 to 5000 |
| C[C@@H](Oc1c(N)ncc2c(-c3cccc(S(C)(=O)=O)c3)coc12)c1c(Cl)ccc(F)c1Cl [Example 67, 7-[(R)-1-(2,6-Dichloro-3-fluor-phenyl)ethoxy]-3-(3-methane-sulfonylphenyl)-furo[3,2-c]pyridin-6-ylamine] | 500 to 5000 | < 500 |
| C[C@@H](Oc1c(N)ncc2c(C3=CCN(C(=O)N4CCN(CC(F)(F)F)CC4)CC3)coc12)c1c(Cl)ccc(F)c1Cl [Example 28, (4-{6-Amino-7-[(R)-1-(2,6-dichloro-3-fluorophenyl)-ethoxy]-furo[3,2-c]pyridin-3-yl}-3,6-dihydro-2H-pyridin-1-yl)-[4-(2,2,2-trifluoroethyl)-piperazin-1-yl]-methanone] | 500 to 5000 | 500 to 5000 |
| C[C@@H](Oc1c(N)ncc2c(C3=CCN(C(=O)C4(O)CC4)CC3)coc12)c1c(Cl)ccc(F)c1Cl [Example 19, (4-{6-Amino-7-[(R)-1-(2,6-dichloro-3-fluorophenyl)-ethoxy]-furo[3,2-c]pyridin-3-yl}-3,6-dihydro-2H-pyridin-1-yl)-(1-hydroxycyclopropyl)-methanone] | 500 to 5000 | 500 to 5000 |
| CC(Cc1c(F)cccc1Cl)Oc1c(N)ncc2c(-c3cnn(C4CCNCC4)c3)coc12 (stereo not shown) [Example 419, 7-[2-(2-Chloro-6-fluorophenyl)-1-methylethoxy]-3-(1-piperidin-4-yl-1H-pyrazol-4-yl)furo[3,2-c]pyridin-6-ylamine] | 500 to 5000 | 500 to 5000 |
| C[C@@H](Oc1c(N)ncc2c(C(=O)NCCN(C)C)coc12)c1c(Cl)ccc(F)c1Cl [Example 190, 6-Amino-7-[(R)-1-(2,6-dichloro-3-fluorophenyl)ethoxy]furo[3,2-c]pyridine-3-carboxylic acid (3-dimethylaminoethyl)amide] | 500 to 5000 | < 500 |
| CC(Oc1c(N)ncc2c(-c3cnn(C4CCNCC4)c3)coc12)c1cc(F)cc(-c2ccccc2)c1 (stereo not shown) [Example 449, 7-[1-(5-Fluorobiphenyl-3-yl)ethoxy]-3-(1-piperidin-4-yl-1H-pyrazol-4-yl)furo[3,2-c]pyridin-6-ylamine] | 500 to 5000 | 500 to 5000 |
| CCCS(=O)(=O)Nc1cccc(-c2coc3c(O[C@H](C)c4c(Cl)ccc(F)c4Cl)c(N)ncc23)c1 [Example 244, Propane-1-sulfonic acid (3-{6-amino-7-[(R)-1-(2,6-dichloro-3-fluorophenyl)ethoxy]-furo[3,2-c]pyridin-3-yl}phenyl)amide] | 500 to 5000 | 500 to 5000 |
| CNc1ncc2c(C3=CCN(C)CC3)coc2c1O[C@H](C)c1c(Cl)ccc(F)c1Cl [Example 36, [7-[(R)-1-(2,6-Dichloro-3-fluorophenyl)-ethoxy]-3-(1-methyl-1,2,3,6-tetrahydropyridin-4-yl)-furo[3,2-c]pyridin-6-yl]-methylamine] | < 500 | < 500 |
| C[C@@H](Oc1c(N)ncc2c(-c3ccc(Cn4cccn4)cc3)coc12)c1c(Cl)ccc(F)c1Cl [Example 110, 7-[(R)-1-(2,6-Dichloro-3-fluorophenyl)ethoxy]-3-(4-pyrazol-1-ylmethylphenyl)-furo[3,2-c]pyridin-6-ylamine] | 500 to 5000 | 500 to 5000 |
| CC(Oc1c(N)ncc2c(-c3cnn(C4CCNCC4)c3)coc12)c1cccc(C(N)=O)c1 (stereo not shown) [Example 411, 3-{1-[6-Amino-3-(1-piperidin-4-yl-1H-pyrazol-4-yl)furo[3,2-c]pyridin-7-yloxy]ethyl}benzamide] | 500 to 5000 | 500 to 5000 |

Next, values leading:

| IC50 [1] [nM] | IC50 [2] [nM] | Compound |
| --- | --- | --- |
| 500 to 5000 | < 500 | CC(Oc1c(N)ncc2c(-c3cnn(C4CCNCC4)c3)coc12)c1ccccc1Br (stereo not shown) [Example 400, 7-[1-(2-Bromophenyl)ethoxy]-3-(1-piperidin-4-yl-1H-pyrazol-4-yl)furo[3,2-c]pyridin-6-ylamine] |
| < 500 | < 500 | Cn1c(Cc2ccccc2)ncc(-c2ccc(COc3c(N)ncc4c(-c5cnn(C6CCNCC6)c5)coc34)cc2)c1=O [Example 462, 5-{4-[6-Amino-3-(1-piperidin-4-yl-1H-pyrazol-4-yl)-furo[3,2-c]pyridin-7-yloxymethyl]-phenyl}-2-benzyl-3-methyl-3H-pyrimidin-4-one] |
| 500 to 5000 | < 500 | CC(Oc1c(N)ncc2c(C3=CCN(C(N)=O)CC3)coc12)c1c(Br)ccc(F)c1Cl (stereo not shown) [Example 457, 4-{6-Amino-7-[1-(6-bromo-2-chloro-3-fluorophenyl)ethoxy]furo[3,2-c]pyridin-3-yl}-3,6-dihydro-2H-pyridine-1-carboxamide] |
| 500 to 5000 | < 500 | CC(Cc1cccc(F)c1)Oc1c(N)ncc2c(-c3cnn(C4CCNCC4)c3)coc12 (stereo not shown) [Example 424, 7-[2-(3-Fluorophenyl)-1-methylethoxy]-3-(1-piperidin-4-yl-1H-pyrazol-4-yl)furo[3,2-c]pyridin-6-ylamine] |
| 500 to 5000 | 500 to 5000 | C[C@@H]1CN(C(=O)c2ccc(-c3coc4c(O[C@H](C)c5c(Cl)ccc(F)c5Cl)c(N)ncc34)cc2)C[C@H](C)O1 [Example 297, (4-{6-Amino-7-[(R)-1-(2,6-dichloro-3-fluorophenyl)ethoxy]-furo[3,2-c]pyridin-3-yl}phenyl)-(2,6-cis-dimethylmorpholin-4-yl)methanone] |
| < 500 | < 500 | CCN1CCN(C(=O)N2CC=C(c3coc4c(O[C@H](C)c5c(Cl)ccc(F)c5Cl)c(N)ncc34)CC2)CC1 [Example 27, (4-{6-Amino-7-[(R)-1-(2,6-dichloro-3-fluorophenyl)-ethoxy]-furo[3,2-c]pyridin-3-yl}-3,6-dihydro-2H-pyridin-1-yl)-(4-ethylpiperazin-1-yl)-methanone] |
| 500 to 5000 | < 500 | C[C@@H](Oc1c(N)ncc2c(-c3cnn(C4CCNCC4)c3)coc12)c1nnc2ccc(-c3ccccc3)nn12 [Example 476, 7-[(1R)-1-(6-phenyl[1,2,4]triazolo[4,3-b]pyridazin-3-yl)ethoxy]-3-[1-(piperidin-4-yl)-1H-pyrazol-4-yl]furo[3,2-c]pyridin-6-amine] |
| 500 to 5000 | 500 to 5000 | C[C@@H](Oc1c(N)ncc2c(-c3cnn(C)c3)coc12)c1c(Cl)ccc(F)c1Cl [Example 4, 7-[(R)-1-(2,6-Dichloro-3-fluorophenyl)-ethoxy]-3-(1-methyl-1H-pyrazol-4-yl)-furo[3,2-c]pyridin-6-ylamine] |
| 500 to 5000 | 500 to 5000 | CC(Oc1c(N)ncc2c(-c3cnn(C4CCNCC4)c3)coc12)c1ccc(OC(F)(F)F)cc1 (stereo not shown) [Example 355, 3-(1-Piperidin-4-yl-1H-pyrazol-4-yl)-7-[1-(4-trifluoromethoxy-phenyl)ethoxy]furo[3,2-c]pyridin-6-ylamine] |
| < 500 | < 500 | CNCC(=O)N1CC=C(c2coc3c(O[C@H](C)c4c(Cl)ccc(F)c4Cl)c(N)ncc23)CC1 [Example 250, 1-[4-{6-Amino-7-[(1R)-1-(2,6-dichloro-3-fluorophenyl)ethoxy]furo[3,2-c]pyridin-3-yl}-3,6-dihydropyridin-1(2H)-yl]-2-(methylamino)ethanone] |
| < 500 | < 500 | C[C@@H](Oc1c(N)ncc2c(-c3cnn([C@@H]4CCNC4)c3)coc12)c1c(Cl)ccc(F)c1Cl [Example 162, 7-[(1R)-1-(2,6-dichloro-3-fluorophenyl)ethoxy]-3-{1-[(3R)-pyrrolidin-3-yl]-1H-pyrazol-4-yl}furo[3,2-c]pyridin-6-amine] |
